Assay results: ChEMBL document CHEMBL1133275, “Synthesis of the nucleoside moiety of liposidomycins: elucidation of the pharmacophore of this family of MraY inhibitors” (Bioorg Med Chem Lett, 2000)

Legend:
[1] = Inhibitory activity of compound was determined against bacterial translocase
[2] = The inhibitory activity determined by using toluene-permeabilized cells of Escherichia coli and the specific nucleoside substrate of the translocase UMA5

IC50 [2] | SMILES | IC50 [1]
– | NC[C@H]1O[C@@H](O[C@H](CO)[C@H]2O[C@@H](n3ccc(=O)[nH]c3=O)[C@H](O)[C@@H]2O)[C@H](O)[C@@H]1O | 5 µM
50 µM | NC[C@H]1O[C@@H](OC[C@H]2O[C@@H](n3ccc(=O)[nH]c3=O)[C@H](O)[C@@H]2O)[C@H](O)[C@@H]1O | –
– | CC(=O)N[C@H]1[C@@H](O[C@@H]2O[C@H](CC(O)[C@H]3O[C@@H](n4ccc(=O)[nH]c4=O)[C@H](O)[C@@H]3O)[C@H](O)[C@H](O)[C@H]2NC(=O)/C=C/CC(C)C)O[C@H](CO)[C@@H](N)[C@@H]1O (stereo not given in full) [TUNICAMYCIN] | 0.48 µM
– | CSCCC(NC(=O)NC(Cc1cccc(O)c1)C(=O)O)C(=O)NC(C(=O)N/C=C1/CC(O)C(N2CCC(=O)NC2=O)O1)C(C)N(C)C(=O)C(N)Cc1cccc(O)c1 (stereo not given) | 0.065 µM
– | NC[C@H]1O[C@@H](O[C@@H](CO)[C@H]2O[C@@H](n3ccc(=O)[nH]c3=O)[C@H](O)[C@@H]2O)[C@H](O)[C@@H]1O | 425 µM
